Measurements taken from PubChem BioAssay AID218 (DTP/NCI, 2004).
Several values for one entry are separate records, joined by “and”; a condition that tells them apart may be missing. Equal entries are not always repeated.

Tested on: C57BL/6 mice, Adenocarcinoma 755 sc, tumor weight T/C
Experiment: NCI In Vivo Anticancer Drug Screen. Data for tumor model Adenocarcinoma 755 (subcutaneous) in C57BL/6 mice
Settings: endpoint: mean tumor weight, higher = larger tumour
Description: The antitumor activity of compounds was measured in mice bearing transplantable tumors. Survival or tumor size were measured and the results are expressed as the measurement made in the treated group (T) divided by the measurement made in the vehicle treated control group (C). The tumor model used in this assay is Adenocarcinoma 755 (subcutaneous) in C57BL/6 mice

[1] = dose: 100.0 mg/kg/injection, schedule: Q02DX006 (ip), vehicle: other
[2] = dose: 75.0 mg/kg/injection, schedule: Q02DX006 (ip), vehicle: other
[3] = dose: 20.0 mg/kg/injection, schedule: Q01DX011 (ip), vehicle: saline
[4] = dose: 40.0 mg/kg/injection, schedule: Q01DX011 (ip), vehicle: saline

For `c1ccc2nc(-c3cc4ccccc4s3)ccc2c1`, the T/C (dose: 300.0 mg/kg/injection, schedule: Q01DX011 (ip), vehicle: saline) was 11 % of control.
`NC(=S)N/N=C/c1ccc(N)cc1` was tested, and the T/C (dose: 35.0 mg/kg/injection, schedule: Q02DX006 (ip), vehicle: other) was 86 % of control, the T/C (dose: 40.0 mg/kg/injection, schedule: Q02DX006 (ip), vehicle: other) was 85 % of control and the T/C (dose: 50.0 mg/kg/injection, schedule: Q02DX006 (ip), vehicle: other) was 87 % of control. The T/C (dose: 60.0 mg/kg/injection, schedule: Q02DX006 (ip), vehicle: other) was 70 % of control and the T/C (dose: 70.0 mg/kg/injection, schedule: Q02DX006 (ip), vehicle: other) was 77 % of control.
`CC(=O)OCC(=O)[C@@]1(O)CC[C@H]2[C@@H]3CCC4=CC(=O)CC[C@]4(C)[C@H]3C(=O)C[C@@]21C` was tested, and the T/C (dose: 40.0 mg/kg/injection, schedule: Q01DX011 (sc), vehicle: saline) was 24 % of control, the T/C (dose: 45.0 mg/kg/injection, schedule: Q01DX011 (sc), vehicle: saline) was 43 % of control and the T/C (dose: 50.0 mg/kg/injection, schedule: Q01DX011 (sc), vehicle: saline) was 16 % of control. The T/C (dose: 60.0 mg/kg/injection, schedule: Q01DX011 (sc), vehicle: saline) was 15 % of control and 39 % of control and the T/C (dose: 100.0 mg/kg/injection, schedule: Q01DX011 (sc), vehicle: saline) was 8 % of control.
For `O=c1[nH]cc(S)c(=O)[nH]1`, the T/C [1] was 86 % of control and the T/C (dose: 125.0 mg/kg/injection, schedule: Q02DX006 (ip), vehicle: other) was 76 % of control.
With `Cn1cnc2ncnc(Cl)c21` the T/C (dose: 75.0 mg/kg/injection, schedule: Q01DX011 (ip), vehicle: carboxymethylcellulose (CMC)) was 183 % of control.
With `CC(C)CNC(=S)N/N=C/c1ccccc1` the T/C [2] was 70 % of control and the T/C [1] was 94 % of control.
For `CSc1ncnc2nc[nH]c12`, the T/C (dose: 1.25 mg/kg/injection, schedule: Q01DX011 (ip), vehicle: carboxymethylcellulose (CMC)) was 16 % of control, the T/C (dose: 2.5 mg/kg/injection, schedule: Q01DX011 (ip), vehicle: carboxymethylcellulose (CMC)) was 8 % of control and the T/C (dose: 7.5 mg/kg/injection, schedule: Q01DX011 (ip), vehicle: saline) was 58 % of control. For the same compound, the T/C (dose: 10.0 mg/kg/injection, schedule: Q01DX011 (ip), vehicle: saline) was 23 % of control, the T/C (dose: 15.0 mg/kg/injection, schedule: Q01DX011 (ip), vehicle: saline) was 2 % of control and the T/C [3] was 6 % of control and 9 % of control. For the same compound, the T/C (dose: 30.0 mg/kg/injection, schedule: Q01DX011 (ip), vehicle: carboxymethylcellulose (CMC)) was 5 % of control, the T/C (dose: 30.0 mg/kg/injection, schedule: Q01DX011 (ip), vehicle: saline) was 1 % of control and 2 % of control and 9 % of control and the T/C (dose: 40.0 mg/kg/injection, schedule: Q01DX011 (ip), vehicle: carboxymethylcellulose (CMC)) was 2 % of control. For the same compound, the T/C [4] was 3 % of control and the T/C (dose: 50.0 mg/kg/injection, schedule: Q01DX011 (ip), vehicle: carboxymethylcellulose (CMC)) was 3 % of control.
With `Clc1ncnc2nc[nH]c12` the T/C (dose: 37.5 mg/kg/injection, schedule: Q01DX011 (ip), vehicle: saline) was 1 % of control.
`Clc1nc(Cl)c2[nH]cnc2n1` was tested, and the T/C [3] was 110 % of control and the T/C [4] was 82 % of control.
For `CC(C)Sc1nc(N)nc2nc[nH]c12`, the T/C (dose: 100.0 mg/kg/injection, schedule: Q01DX011 (ip), vehicle: saline) was 7 % of control.
For `Nc1nc(F)nc2c1ncn2C1OC(CO)C(O)C1O` (stereo not drawn), the T/C (dose: 2.0 mg/kg/injection, schedule: Q01DX011 (ip), vehicle: carboxymethylcellulose (CMC)) was 87 % of control.
For `S=c1nc[nH]c2n[nH]nc12`, the T/C (dose: 30.0 mg/kg/injection, schedule: Q02DX006 (ip), vehicle: other) was 70 % of control and the T/C [2] was 14 % of control.
In the case of `C[C@@H]1CC2=CC(=O)C=C[C@]2(C)[C@H]2CC[C@@]3(C)[C@@H](CC[C@]3(C)O)[C@H]12`, the T/C (dose: 50.0 mg/kg/injection, schedule: Q01DX011 (sc), vehicle: steriod suspending solution) is reported as 70 % of control, the T/C (dose: 100.0 mg/kg/injection, schedule: Q01DX011 (sc), vehicle: steriod suspending solution) is reported as 73 % of control and the T/C (dose: 200.0 mg/kg/injection, schedule: Q01DX011 (sc), vehicle: steriod suspending solution) is reported as 58 % of control. For the same compound, the T/C (dose: 400.0 mg/kg/injection, schedule: Q01DX011 (sc), vehicle: steriod suspending solution) was 29 % of control.
